Measured values: PMC3845904 (Chemical research in toxicology, 2009)
Several values for one entry are separate records, joined by “and”; a condition that tells them apart may be missing. Equal values may be shown once.

What was measured:
human P450 1B1 [1] = biological target: T1, human P450 1B1 (Homo sapiens, UniProt Q16678); assay: biochemical
T1 sequence (Q16678 1-543): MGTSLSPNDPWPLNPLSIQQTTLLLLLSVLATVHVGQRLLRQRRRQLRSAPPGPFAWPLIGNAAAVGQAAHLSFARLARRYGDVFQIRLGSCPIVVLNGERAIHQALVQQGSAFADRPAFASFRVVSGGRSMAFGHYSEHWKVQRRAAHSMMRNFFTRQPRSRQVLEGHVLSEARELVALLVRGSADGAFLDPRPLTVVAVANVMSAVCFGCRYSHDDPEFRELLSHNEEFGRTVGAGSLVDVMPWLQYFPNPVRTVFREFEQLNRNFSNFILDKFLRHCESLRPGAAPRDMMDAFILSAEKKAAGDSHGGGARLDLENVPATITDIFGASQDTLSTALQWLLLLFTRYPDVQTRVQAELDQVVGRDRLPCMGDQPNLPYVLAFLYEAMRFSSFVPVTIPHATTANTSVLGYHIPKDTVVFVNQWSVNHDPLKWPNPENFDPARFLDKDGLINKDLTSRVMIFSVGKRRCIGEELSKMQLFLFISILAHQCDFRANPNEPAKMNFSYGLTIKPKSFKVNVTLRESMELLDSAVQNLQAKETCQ

human P450 1B1 [2] = biological target: T1, human P450 1B1; assay: Spectral binding titration; details: for Reverse Type I spectra ΔAmax/Ks (magnitude of spectral binding) / Reverse Type I spectra ΔAmax: purified P450 1B1 1.0 μM, ND = not detected at 100 μM; for Reverse Type I spectra ΔAmax: means ± SEs
P450 1A2 = P450 1A2 (Homo sapiens, UniProt P05177); assay: Inhibition of EROD activity catalyzed by P450 1A2; type: biochemical; details: Figure 4
Chain of P450 1A2 (P05177 whole entry): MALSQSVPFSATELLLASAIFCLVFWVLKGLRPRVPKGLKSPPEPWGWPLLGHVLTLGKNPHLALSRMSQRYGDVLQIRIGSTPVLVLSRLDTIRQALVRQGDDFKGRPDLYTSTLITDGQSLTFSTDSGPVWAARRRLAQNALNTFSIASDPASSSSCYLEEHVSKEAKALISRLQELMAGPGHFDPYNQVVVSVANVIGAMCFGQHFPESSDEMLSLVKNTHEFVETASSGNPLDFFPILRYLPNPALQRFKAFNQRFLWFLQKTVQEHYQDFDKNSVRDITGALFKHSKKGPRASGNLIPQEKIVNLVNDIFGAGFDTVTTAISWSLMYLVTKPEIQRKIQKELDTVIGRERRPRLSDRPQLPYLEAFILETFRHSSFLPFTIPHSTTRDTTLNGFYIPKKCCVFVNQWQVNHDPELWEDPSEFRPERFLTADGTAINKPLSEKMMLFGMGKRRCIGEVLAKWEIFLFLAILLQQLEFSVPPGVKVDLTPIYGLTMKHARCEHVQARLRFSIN

Structure (SMILES)	IC50 (human P450 1B1 [1])	Reverse Type I spectra ΔAmax/Ks (magnitude of spectral binding) (human P450 1B1 [2])	Reverse Type I spectra ΔAmax (human P450 1B1 [2])	Kd (human P450 1B1 [2]) [µM]	spectral interaction with P450 1B1 (in words) (human P450 1B1 [2]; up to 100 μM)	Reverse Type I spectra ΔAmax (human P450 1B1 [2]; listed as Flavone)	inhibition of P450 1A2 EROD (in words) (P450 1A2)
C#Cc1ccc2ccc3cccc4ccc1c2c34 [1EP, 1-ethynylpyrene]	0.036 ± 0.005 µM	0.0169	0.049 ± 0.005	–	–	–	–
CC#Cc1ccc2ccc3cccc4ccc1c2c34 [1PP, 1-(1-propynyl)pyrene]	0.045 ± 0.005 µM	0.0156	0.042 ± 0.002	–	–	–	–
C=Cc1ccc2ccc3cccc4ccc1c2c34 [1VP, 1-vinylpyrene]	0.15 ± 0.02 µM	0.0209	0.092 ± 0.003	4.4 ± 0.3	–	–	–
C#CCOCc1ccccc1-c1ccccc1 [2BMPE, 2-biphenyl methyl propargyl ether]	–	0.0009	0.130 ± 0.009	–	–	–	–
C#CCOc1ccccc1-c1ccccc1 [2BPE, 2-biphenyl propargyl ether]	–	0.0010	0.110 ± 0.009	–	–	–	–
C#Cc1ccc2ccccc2c1 [2EN, 2-ethynylnaphthalene]	1.2 ± 0.2 µM	0.0033	0.049 ± 0.002	–	–	–	–
C#Cc1cc2ccc3cccc4ccc(c1)c2c34 [2EP, 2-ethynylpyrene]	0.038 ± 0.004 µM	0.0209	0.071 ± 0.001	–	–	–	–
C#Cc1ccc2c(ccc3ccccc32)c1 [2EPh, 2-ethynylphenanthrene]	0.21 ± 0.03 µM	0.0190	0.080 ± 0.004	–	–	–	–
COc1ccccc1-c1cc(=O)c2c(O)cc(O)cc2o1 [2M57DHF, 2′-methoxy-5,7-dihydroxyflavone]	0.24 ± 0.02 µM	0.0016	0.100 ± 0.011	64 ± 10	–	–	–
COc1ccccc1-c1cc(=O)c2ccc(O)c(O)c2o1 [2M78DHF, 2′-methoxy-7,8-dihydroxyflavone]	> 100 µM	–	–	–	did not show any detectable spectral interaction	–	–
COc1ccccc1-c1cc(=O)c2ccccc2o1 [2MF, 2′-methoxyflavone]	0.32 ± 0.06 µM	0.0013	0.070 ± 0.005	56 ± 8	–	–	–
CC#Cc1ccc2c(ccc3ccccc32)c1 [2PPh, 2-(1-propynyl)phenanthrene]	0.15 ± 0.02 µM	0.0305	0.067 ± 0.005	–	–	–	–
C#Cc1ccc2ccc3ccccc3c2c1 [3EPh, 3-ethynylphenanthrene]	0.16 ± 0.02 µM	0.0237	0.071 ± 0.001	–	–	–	–
COc1cccc(-c2cc(=O)c3c(O)cc(O)cc3o2)c1 [3M57DHF, 3′-methoxy-5,7-dihydroxyflavone]	0.11 ± 0.02 µM	0.0037	0.075 ± 0.008	20 ± 3	–	–	–
COc1cccc(-c2cc(=O)c3ccc(O)c(O)c3o2)c1 [3M78DHF, 3′-methoxy-7,8-dihydroxyflavone]	3.7 ± 0.5 µM	0.0003	0.044 ± 0.005	140 ± 15	–	–	–
COc1cccc(-c2cc(=O)c3ccccc3o2)c1 [3MF, 3′-methoxyflavone]	0.15 ± 0.02 µM	0.0006	0.029 ± 0.001	51 ± 4.1	–	–	–
CC#Cc1ccc2ccc3ccccc3c2c1 [3PPh, 3-(1-propynyl)phenanthrene]	0.067 ± 0.008 µM	0.0194	0.060 ± 0.006	–	–	–	–
C#CCOCc1ccc(-c2ccccc2)cc1 [4BMPE, 4-biphenyl methyl propargyl ether]	–	0.0055	0.071 ± 0.002	–	–	–	–
C#CCOc1ccc(-c2ccccc2)cc1 [4BPE, 4-biphenyl propargyl ether]	–	0.0007	0.056 ± 0.010	–	–	–	–
C#Cc1ccc(-c2ccccc2)cc1 [4EB, 4-ethynylbiphenyl]	2.2 ± 0.3 µM	0.0030	0.023 ± 0.001	–	–	–	–
C#Cc1cc2cccc3ccc4cccc1c4c32 [4EP, 4-ethynylpyrene]	0.17 ± 0.03 µM	0.0130	0.052 ± 0.004	–	–	–	–

Structure (SMILES)	IC50 (human P450 1B1 [1])	Reverse Type I spectra ΔAmax/Ks (magnitude of spectral binding) (human P450 1B1 [2])	Reverse Type I spectra ΔAmax (human P450 1B1 [2])	Kd (human P450 1B1 [2]) [µM]	spectral interaction with P450 1B1 (in words) (human P450 1B1 [2]; up to 100 μM)	Reverse Type I spectra ΔAmax (human P450 1B1 [2]; listed as Flavone)	inhibition of P450 1A2 EROD (in words) (P450 1A2)
COc1ccc(-c2cc(=O)c3ccc(O)c(O)c3o2)cc1 [4M78DHF]	1.1 ± 0.2 µM	0.0013	0.073 ± 0.009	56 ± 15	–	–	–
COc1ccc(-c2cc(=O)c3ccccc3o2)cc1 [4MF, 4′-methoxyflavone]	0.23 ± 0.03 µM	–	–	66 ± 11	–	–	–
C#Cc1cc2ccccc2c2ccccc12 [9EPh, 9-ethynylphenanthrene]	0.12 ± 0.01 µM	0.0197	0.071 ± 0.004	–	–	–	–
CC#Cc1cc2ccccc2c2ccccc12 [9PPh, 9-(1-propynyl)phenanthrene]	0.16 ± 0.03 µM	0.0153	0.049 ± 0.002	–	–	–	–
C#CCOc1ccccc1-c1ccccc1OCC#C [22BDPE, 2,2-biphenyl dipropagyl ether]	–	0.0006	0.018 ± 0.001	–	–	–	–
COc1ccc(-c2cc(=O)c3c(O)cc(O)cc3o2)cc1OC [34DM57DHF, 3′,4′-dimethoxy-5,7-dihydroxyflavone]	–	0.0180	0.037 ± 0.002	2 ± 0.3	–	–	–
COc1ccc(-c2cc(=O)c3ccc(O)c(O)c3o2)cc1OC [34DM78DHF, 3′,4′-dimethoxy-7,8-dihydroxyflavone]	19 ± 2.3 µM	0.0003	0.053 ± 0.003	190 ± 17	–	–	–
COc1ccc(-c2cc(=O)c3ccccc3o2)cc1OC [34DMF, 3′,4′-dimethoxyflavone]	0.26 ± 0.03 µM	0.0021	0.051 ± 0.003	24 ± 3.2	–	–	–
C#CCOc1ccc(-c2ccc(OCC#C)cc2)cc1 [44BDPE, 4,4-biphenyl dipropargyl ether]	–	0.0013	0.031 ± 0.002	–	–	–	–
O=c1cc(-c2ccccc2)oc2c1ccc1ccccc12 [ANF, α-naphthoflavone, reference compound]	–	0.0061	0.073 ± 0.007	–	–	–	–
O=c1cc(-c2ccccc2)oc2ccc3ccccc3c12 [BNF, β–naphthoflavone, reference compound]	0.0041 ± 0.0004 µM	0.0061	0.079 ± 0.009	13 ± 1.2	–	–	–
C[C@]12CC[C@@H]3c4ccc(O)cc4CC[C@H]3[C@@H]1CC[C@@H]2O [E2, 17β-estradiol, reference compound]	–	0.0005	0.039 ± 0.007	–	–	–	–
c1ccc2c(c1)ccc1ccccc12 [Phenanthrene, phenanthrene, reference compound]	0.51 ± 0.1 µM	0.0031	0.044 ± 0.002	14 ± 1.7	–	–	–
Oc1cc(O)cc(/C=C/c2ccc(O)c(O)c2)c1 [Piceatannol (Pice), Piceatannol, reference compound]	0.83 ± 0.14 µM	0.0016	0.034 ± 0.001	21 ± 1.1	–	–	–
COc1cc(C=Cc2ccc(OC)cc2OC)cc(OC)c1 [TMS, 2,4,3′,5′-tetramethoxystilbene, reference compound]	–	0.0110	–	–	–	–	–
c1ccc(-c2ccccc2)cc1 [biphenyl, reference compound]	19 ± 2.3 µM	0.0003	0.037 ± 0.008	140 ± 19	–	–	–
O=c1cc(-c2ccccc2)oc2ccccc12 [flavone, reference compound]	–	0.0006	0.026 ± 0.002	–	–	0.026	–
c1ccc2ccccc2c1 [naphthalene, reference compound]	~26 µM and 26 µM	–	–	–	–	–	weak
c1cc2ccc3cccc4ccc(c1)c2c34 [pyrene, reference compound]	0.025 ± 0.003 µM	0.0338	0.044 ± 0.001	1.3 ± 0.1	–	–	–
Oc1ccc(/C=C/c2cc(O)cc(O)c2)cc1 [resveratrol (Res), resveratrol, reference compound]	1.2 ± 0.2 µM	0.0012	0.034 ± 0.004	28 ± 3.3	–	–	–
